Experimental data as given in patent publication US20230092890A1, “1, 3, 4-Oxadiazole derivative compounds as histone deacetylase 6 inhibitor, and the pharmaceutical composition comprising the same” (Chong Kun Dang Pharmaceutical Corp., priority 2019, published 2023).

Columns and labels:
[1] = target: T1, HDAC6 human recombinant (Homo sapiens, UniProt Q9UBN7); assay: HDAC enzyme activity inhibition (in vitro), HDAC6 assay; type: biochemical; conditions: samples at 0.1, 1, 10, 100 and 1000 nM; 37° C. 60 minutes; fluorescence Ex 390, Em 460; read-out: HDAC6 IC50
T1 construct: purchased Calbiochem 382180
T1 sequence (Q9UBN7 1-1215): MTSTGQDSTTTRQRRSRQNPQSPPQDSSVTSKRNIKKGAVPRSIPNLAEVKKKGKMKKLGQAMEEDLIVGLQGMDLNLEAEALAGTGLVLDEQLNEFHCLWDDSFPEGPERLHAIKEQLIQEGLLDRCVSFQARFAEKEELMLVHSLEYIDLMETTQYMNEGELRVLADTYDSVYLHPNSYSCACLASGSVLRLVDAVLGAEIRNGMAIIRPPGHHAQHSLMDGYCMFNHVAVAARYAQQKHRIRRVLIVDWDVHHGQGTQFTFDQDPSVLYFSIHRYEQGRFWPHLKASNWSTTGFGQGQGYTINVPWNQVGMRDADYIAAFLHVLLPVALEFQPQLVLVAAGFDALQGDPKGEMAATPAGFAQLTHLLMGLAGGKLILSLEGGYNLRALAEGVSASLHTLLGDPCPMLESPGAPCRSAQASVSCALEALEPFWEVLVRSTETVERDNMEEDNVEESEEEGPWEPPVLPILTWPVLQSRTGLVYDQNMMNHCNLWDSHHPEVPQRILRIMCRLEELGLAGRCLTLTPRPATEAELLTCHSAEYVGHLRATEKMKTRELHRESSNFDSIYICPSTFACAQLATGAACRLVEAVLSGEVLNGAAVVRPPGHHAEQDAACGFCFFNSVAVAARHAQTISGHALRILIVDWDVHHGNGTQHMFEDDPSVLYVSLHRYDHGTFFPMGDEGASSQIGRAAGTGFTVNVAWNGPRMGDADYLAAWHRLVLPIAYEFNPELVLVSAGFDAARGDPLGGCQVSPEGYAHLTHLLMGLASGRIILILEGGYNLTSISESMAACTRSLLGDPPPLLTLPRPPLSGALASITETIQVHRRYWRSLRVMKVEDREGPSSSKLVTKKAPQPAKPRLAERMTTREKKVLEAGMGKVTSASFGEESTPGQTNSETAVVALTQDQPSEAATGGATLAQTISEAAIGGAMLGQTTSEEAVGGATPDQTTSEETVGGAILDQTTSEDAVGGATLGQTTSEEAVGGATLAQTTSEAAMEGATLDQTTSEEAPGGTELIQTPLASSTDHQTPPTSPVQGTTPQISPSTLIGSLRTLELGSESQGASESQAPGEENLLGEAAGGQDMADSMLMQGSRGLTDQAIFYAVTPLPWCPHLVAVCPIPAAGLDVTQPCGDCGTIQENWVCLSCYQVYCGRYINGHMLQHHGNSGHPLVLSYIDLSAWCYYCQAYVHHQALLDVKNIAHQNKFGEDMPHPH
Summary of the method: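 Fluorescence (Ex 390, Em 460) read after a 37° C, 60 min enzyme reaction and a further 30 min developer step at 37° C. Uses recombinant human HDAC6; HDAC1 arm dosed at 100, 1000, 10000 nM.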

[2] = target: T2, HDAC1 (Homo sapiens, UniProt Q13547); assay: HDAC enzyme activity inhibition (in vitro), HDAC1 Fluorimetric Drug Discovery Assay Kit; type: biochemical; conditions: samples at 100, 1000 and 10000 nM; 37° C. 60 minutes; fluorescence Ex 390, Em 460; read-out: HDAC1 IC50
T2 construct: purchased Enzolifesciences BML-AK511
T2 sequence (Q13547 whole entry): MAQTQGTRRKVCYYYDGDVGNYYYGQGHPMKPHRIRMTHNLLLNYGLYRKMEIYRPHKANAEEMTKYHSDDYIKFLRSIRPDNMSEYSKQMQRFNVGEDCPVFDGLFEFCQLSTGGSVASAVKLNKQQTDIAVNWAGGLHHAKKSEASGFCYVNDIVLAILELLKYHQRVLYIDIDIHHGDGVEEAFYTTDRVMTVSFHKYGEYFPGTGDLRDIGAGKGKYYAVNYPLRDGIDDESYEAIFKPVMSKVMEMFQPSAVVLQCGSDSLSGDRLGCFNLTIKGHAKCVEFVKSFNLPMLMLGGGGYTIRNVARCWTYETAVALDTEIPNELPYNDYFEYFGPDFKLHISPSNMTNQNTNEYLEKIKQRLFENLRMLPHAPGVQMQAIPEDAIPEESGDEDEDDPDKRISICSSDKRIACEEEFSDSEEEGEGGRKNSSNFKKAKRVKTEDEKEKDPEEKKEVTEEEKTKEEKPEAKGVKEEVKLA
Summary of the method: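 Fluorescence read-out (Ex 390/Em 460) after developer step, 30 min at 37° C, following a 60-min 37° C enzyme reaction. Test concentrations: HDAC1 kit, 100–10000 nM (three levels); recombinant human HDAC6, 0.1–1000 nM (five levels).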

| SMILES | IC50 [1] | IC50 [2] |
| --- | --- | --- |
| Cn1c(=O)n(Cc2ccc(-c3nnc(C(F)F)o3)cn2)c2cc(F)c(-c3ccc(S(C)(=O)=O)cc3)cc21 [Compound 225, 1-((5-(5-(difluoromethyl)-1,3,4-oxadiazole-2-yl)pyridine-2-yl)methyl)-6-fluoro-3-methy 1-5-(4-(methylsulfonyl)phenyl)-1,3-dihydro-2H-benzo[d]imidazole-2-one] | 11 nM | > 10000 nM |
| CN1CCC(n2c(=O)n(Cc3ccc(-c4nnc(C(F)F)o4)cc3F)c3ncccc32)CC1 [Compound 103, 3-(4-(5-(difluoromethyl)-1,3,4-oxadiazole-2-yl)-2-fluorobenzyl)-1-(1-methylpiperidine-4-yl)-1,3-dihydro-2H-imidazo[4,5-b]pyridine-2-one] | 342 nM | > 10000 nM |
| O=c1n(Cc2ccc(-c3nnc(C(F)F)o3)cn2)c2ccc(F)cc2n1C1CCN(C2CCOCC2)CC1 [Compound 44, 1-((5-(5-(difluoromethyl)-1,3,4-oxadiazole-2-yl)pyridine-2-yl)methyl)-5-fluoro-3-(1-(tetrahydro-2H-pyran-4-yl)piperidine-4-yl)-1,3-dihydro-2H-benzo[d]imidazole-2-one] | 76 nM | > 10000 nM |
| CN1CCN(c2cc3c(cc2F)n(Cc2ccc(-c4nnc(C(F)F)o4)cn2)c(=O)n3-c2cccnc2)CC1 [Compound 328, 1-((5-(5-(difluoromethyl)-1,3,4-oxadiazole-2-yl)pyridine-2-yl)methyl)-6-fluoro-5-(4-methylpiperazine-1-yl)-3-(pyridine-3-yl)-1,3-dihydro-2H-benzo[d]imidazole-2-one] | 85 nM | > 10000 nM |
| O=c1n(CCN2CC3(COC3)C2)c2ccccc2n1Cc1ccc(-c2nnc(C(F)F)o2)cc1F [Compound 24] | 137 nM | > 10000 nM |
| CC(=O)N1CCC(n2c(=O)n(Cc3ccc(-c4nnc(C(F)F)o4)cc3F)c3ccccc32)CC1 [Compound 17, 1-(1-acetylpiperidine-4-yl)-3-(4-(5-(difluoromethyl)-1,3,4-oxadiazole-2-yl)-2-fluorobenzyl)-1,3-dihydro-2H-benzo[d]imidazole-2-one] | 214 nM | > 10000 nM |
| CN1CCC(n2c(=O)n(Cc3ccc(-c4nnc(C(F)F)o4)cc3F)c3cc(F)c(-c4ccco4)cc32)CC1 [Compound 114, 1-(4-(5-(difluoromethyl)-1,3,4-oxadiazole-2-yl)-2-fluorobenzyl)-6-fluoro-5-(furan-2-yl)-3-(1-methylpiperidine-4-yl)-1,3-dihydro-2H-benzo[d]imidazole-2-one] | 88 nM | > 10000 nM |
| CN1CCC(n2c(=O)n(Cc3ccc(-c4nnc(C(F)F)o4)cn3)c3ccccc32)CC1 [Compound 4, 1-((5-(5-(difluoromethyl)-1,3,4-oxadiazole-2-yl)pyridine-2-yl)methyl)-3-(1-methylpiperidine-4-yl)-1,3-dihydro-2H-benzo[d]imidazole-2-one] | 178 nM | > 10000 nM |
| O=c1n(Cc2ccc(-c3nnc(C(F)F)o3)cn2)c2c(F)cccc2n1C1CCN(C2COC2)CC1 [Compound 77, 3-((5-(5-(difluoromethyl)-1,3,4-oxadiazole-2-yl)pyridine-2-yl)methyl)-4-fluoro-1-(1-(oxetan-3-yl)piperidine-4-yl)-1,3-dihydro-2H-benzo[d]imidazole-2-one] | 35 nM | > 10000 nM |
| CN1CCC[C@@H](n2c(=O)n(Cc3ccc(-c4nnc(C(F)F)o4)cn3)c3cc(F)c(-c4ccncc4)cc32)C1 [Compound 275, (R)-1-((5-(5-(difluoromethyl)-1,3,4-oxadiazole-2-yl)pyridine-2-yl)methyl)-6-fluoro-3-(1-methylpiperidine-3-yl)-5-(pyridine-4-yl)-1,3-dihydro-2H-benzo[d]imidazole-2-one] | 16 nM | > 10000 nM |
| CN1CC(n2c(=O)n(Cc3ccc(-c4nnc(C(F)F)o4)cn3)c3cc(F)c(-c4cccnc4)cc32)C1 [Compound 258, 1-((5-(5-(difluoromethyl)-1,3,4-oxadiazole-2-yl)pyridine-2-yl)methyl)-6-fluoro-3-(1-methylazetidine-3-yl)-5-(pyridine-3-yl)-1,3-dihydro-2H-benzo[d]imidazole-2-one] | 13 nM | > 10000 nM |
| CN1CCC(n2c(=O)n(Cc3ccc(-c4nnc(C(F)F)o4)cc3)c3cc(Cl)c(Cl)cc32)CC1 [Compound 85, 5,6-dichloro-1-(4-(5-(difluoromethyl)-1,3,4-oxadiazole-2-yl)benzyl)-3-(1-methylpiperidine-4-yl)-1,3-dihydro-2H-benzo[d]imidazole-2-one] | 31 nM | > 10000 nM |
| O=c1n(CCN2CCOCC2)c2cc(-c3cccc4[nH]ccc34)c(F)cc2n1Cc1ccc(-c2nnc(C(F)F)o2)cn1 [Compound 269, 1-((5-(5-(difluoromethyl)-1,3,4-oxadiazole-2-yl)pyridine-2-yl)methyl)-6-fluoro-5-(1H-indole-4-yl)-3-(2-morpholinoethyl)-1,3-dihydro-2H-benzo[d]imidazole-2-one] | 6 nM | > 10000 nM |
| CN1CCC(n2c(=O)n(Cc3ccc(-c4nnc(C(F)F)o4)cn3)c3cc(F)c(-c4cc5ccccc5n4C(=O)OC(C)(C)C)cc32)CC1 [Compound 253, tert-butyl 2-(1-((5-(5-(difluoromethyl)-1,3,4-oxadiazole-2-yl)pyridine-2-yl)methyl)-6-fluoro-3-(1-methylpiperidine-4-yl)-2-oxo-2,3-dihydro-1H-benzo[d]imidazole-5-yl)-1H-indole-1-carboxylate] | 271 nM | > 10000 nM |
| Cn1c(=O)n(Cc2ccc(-c3nnc(C(F)F)o3)cn2)c2ccc(-c3ccn[nH]3)cc21 [Compound 221, 1-((5-(5-(difluoromethyl)-1,3,4-oxadiazole-2-yl)pyridine-2-yl)methyl)-3-methyl-5-(1H-pyrazole-5-yl)-1,3-dihydro-2H-benzo[d]imidazole-2-one] | 8 nM | > 10000 nM |
| CC(=O)N1CCC(c2ccc3c(c2)n(C2CCN(C)CC2)c(=O)n3Cc2ccc(-c3nnc(C(F)F)o3)cn2)CC1 [Compound 197, 5-(1-acetylpiperidine-4-yl)-1-((5-(5-(difluoromethyl)-1,3,4-oxadiazole-2-yl)pyridine-2-yl)methyl)-3-(1-methylpiperidine-4-yl)-1,3-dihydro-2H-benzo[d]imidazole-2-one] | 235 nM | > 10000 nM |
